Data on 21 compounds can be found in patent US7160874B2, “Phenylalanine derivatives” (Ajinomoto Co., Inc., priority 1999, dated 2007).

SMILES strings stand for the structures.

The target in test [1] is T1, integrin α4β1 (Homo sapiens, UniProt P05556+P13612).
T1 construct: cell strain Jurkat (ATCC TIB-152) of human T cells, known to express integrin α4β1; host or cells: Jurkat (human T cell line)
In words: VCAM antagonist activity (VCAM-1/α4β1 binding assay). It is filed as cell-based. To be noted: Jurkat cells binding to VCAM-1; read-out: VCAM antagonistic activity (IC50) α4β1. As for the experimental part:
(Test Example) VCAM Antagonist Activity (VCAM-1/α4β1 Binding Assay):
The capacity of a test substance antagonistic to the binding of cell strain Jurkat (ATCC TIB-152) of human T cells, known to express integrin α4β1, to VCAM-1 was determined.
(§1) 100 μl/well of a solution (500 ng/ml) of recombinant human VCAM-1 (R & D systems) solution diluted with buffer A (0.1 M NaHCO3, pH 9.6) was added to a micro titer plate having 96 wells (Nunc Maxisorp). After the incubation at 4° C. overnight, unbound VCAM-1 was removed by washing once with PBS. After completion of the washing, a buffer (buffer B) obtained by diluting Block Ace® (Dainippon Pharmaceutical Co., Ltd.) with PBS to 1/4 concentration was added in an amount of 150 μl/well. After the incubation at room temperature for 1 hour, buffer B was removed and the plate was washed with PBS once.
Jurkat cells were washed with Dulbecco modified Eagle medium (SIGMA, hereinafter referred to as “DMEM”) twice and then incubated in DMEM containing 10 μg/ml of Calcein-AM (Wako Pure Chemical Industries, Ltd.) at 37° C. in dark place for 30 minutes to label with fluorescence. The cells were again suspended in a binding buffer (20 mM HEPES, DMEM containing 0.1% BSA).
(§2) 50 μl of a test substance of various concentrations obtained by the dilution with the binding buffer was added to the plate. Immediately thereafter, 50 μl (final volume: 100 μl/well) of the fluorescent Jurkat cells (4×10^6 cells/ml) were added thereto, and they were incubated at room temperature for 30 minutes. After the shaking on a plate shaker (IKA MTS-4) at 800 rpm for 30 seconds, the solution was immediately removed to remove the unbound cells. The fluorescence quantity of the bound cells remaining in the wells was determined with a fluorescent plate reader (Wallac 1420 ARVO multi-label counter) (filter excitation wave length: 485 nm, emission wave length: 535 nm). The fluorescent strength thus obtained is proportional to the number of Jurkat cells bound to VCAM-1 and remaining on the plate. The binding rate of each test material in various concentrations was determined while the fluorescent strength of the test material-free well was determined to be 100%. The concentration IC50 for the 50% binding inhibition was calculated.
(§3) The activities were classified into group A wherein IC50 was 0.02 μmol/l or below, group B wherein IC50 was higher than 0.02 μmol/l and not above 0.1 μmol/l, group C wherein IC50 was higher than 0.1 μmol/l and not above 2 μmol/l, and group D wherein IC50 was higher than 2 μmol/l and not above 10 μmol/l.

Test [2] deals with T2, integrin α4β7 (Homo sapiens, UniProt P13612+P26010).
T2 construct: lymphoma cell strain RPMI-8866 of human B cells, known to express integrin α4β7; endogenous in cells; host or cells: RPMI-8866 (human B lymphoma cell line)
T2 sequence (P13612 34-1032): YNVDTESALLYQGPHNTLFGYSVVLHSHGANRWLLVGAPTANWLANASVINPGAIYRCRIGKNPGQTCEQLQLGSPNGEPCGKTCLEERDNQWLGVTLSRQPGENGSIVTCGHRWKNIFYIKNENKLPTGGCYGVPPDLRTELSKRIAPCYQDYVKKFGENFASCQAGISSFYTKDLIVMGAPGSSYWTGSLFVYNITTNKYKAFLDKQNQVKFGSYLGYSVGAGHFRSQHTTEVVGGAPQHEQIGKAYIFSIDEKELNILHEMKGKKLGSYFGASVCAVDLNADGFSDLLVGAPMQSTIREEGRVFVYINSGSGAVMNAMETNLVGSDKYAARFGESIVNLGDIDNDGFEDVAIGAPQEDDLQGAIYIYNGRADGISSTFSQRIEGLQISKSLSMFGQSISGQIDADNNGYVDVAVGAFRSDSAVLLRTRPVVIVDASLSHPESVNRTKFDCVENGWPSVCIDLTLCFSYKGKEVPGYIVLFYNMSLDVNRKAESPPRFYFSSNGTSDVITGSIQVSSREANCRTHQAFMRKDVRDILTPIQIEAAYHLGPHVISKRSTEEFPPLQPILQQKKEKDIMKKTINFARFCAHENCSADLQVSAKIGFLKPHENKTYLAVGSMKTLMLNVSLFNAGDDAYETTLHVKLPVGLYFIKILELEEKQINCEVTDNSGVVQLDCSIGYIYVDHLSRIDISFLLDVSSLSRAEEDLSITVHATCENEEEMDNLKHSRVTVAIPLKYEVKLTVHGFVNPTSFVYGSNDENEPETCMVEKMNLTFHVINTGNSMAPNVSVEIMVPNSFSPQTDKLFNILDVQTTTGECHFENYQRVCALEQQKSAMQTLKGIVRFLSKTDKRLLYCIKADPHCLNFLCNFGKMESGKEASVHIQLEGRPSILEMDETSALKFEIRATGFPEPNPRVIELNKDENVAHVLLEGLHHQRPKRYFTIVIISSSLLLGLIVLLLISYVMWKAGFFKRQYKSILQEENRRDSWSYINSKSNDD
T2 sequence (P26010 20-798): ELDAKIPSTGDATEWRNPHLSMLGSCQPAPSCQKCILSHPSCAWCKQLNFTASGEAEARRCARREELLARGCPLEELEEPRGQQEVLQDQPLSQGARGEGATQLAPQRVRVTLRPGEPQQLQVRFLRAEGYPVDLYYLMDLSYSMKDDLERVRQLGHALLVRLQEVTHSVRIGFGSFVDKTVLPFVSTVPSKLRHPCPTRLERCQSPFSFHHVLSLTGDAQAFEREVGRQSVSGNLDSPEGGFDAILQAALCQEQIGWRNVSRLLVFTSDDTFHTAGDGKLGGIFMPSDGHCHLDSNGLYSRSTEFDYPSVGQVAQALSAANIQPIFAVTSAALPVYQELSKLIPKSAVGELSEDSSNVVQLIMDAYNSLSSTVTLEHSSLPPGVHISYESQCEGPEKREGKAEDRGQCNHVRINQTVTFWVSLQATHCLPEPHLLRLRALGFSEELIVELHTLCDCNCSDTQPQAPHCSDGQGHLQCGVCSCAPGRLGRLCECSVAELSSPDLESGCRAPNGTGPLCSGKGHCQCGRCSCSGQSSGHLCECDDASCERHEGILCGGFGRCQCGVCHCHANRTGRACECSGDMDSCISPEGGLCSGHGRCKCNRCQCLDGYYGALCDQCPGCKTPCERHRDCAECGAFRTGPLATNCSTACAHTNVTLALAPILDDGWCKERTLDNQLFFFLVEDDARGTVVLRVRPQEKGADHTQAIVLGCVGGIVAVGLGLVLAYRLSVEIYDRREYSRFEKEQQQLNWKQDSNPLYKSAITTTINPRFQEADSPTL
In words: VCAM antagonistic activity (VCAM-1/α4β7 binding assay). Format: cell-based. To be noted: RPMI-8866 cells binding to VCAM-1; read-out: VCAM antagonistic activity (IC50) α4β7. As for the experimental part:
(Test Example) VCAM Antagonistic Activity (VCAM-1/α4β7 Binding Assay):
The capacity of a test substance antagonistic to the binding of lymphoma cell strain RPMI-8866 of human B cells, known to express integrin α4β7, to VCAM-1 was determined.
as §1
RPMI-8866 cells were incubated in Dulbecco modified Eagle medium containing 10 μg/ml of Calcein-AM (Wako Pure Chemical Industries, Ltd.) (SIGMA, hereinafter referred to as “DMEM”) at 37° C. for 30 minutes to label with fluorescence. The cells were again suspended in a binding buffer (20 mM HEPES, DMEM containing 0.1% BSA) containing 4 mM of MnCl2.
as §2, with “RPMI-8866” for “Jurkat”
as §3

T1 sequence (P05556 21-798, one chain of several): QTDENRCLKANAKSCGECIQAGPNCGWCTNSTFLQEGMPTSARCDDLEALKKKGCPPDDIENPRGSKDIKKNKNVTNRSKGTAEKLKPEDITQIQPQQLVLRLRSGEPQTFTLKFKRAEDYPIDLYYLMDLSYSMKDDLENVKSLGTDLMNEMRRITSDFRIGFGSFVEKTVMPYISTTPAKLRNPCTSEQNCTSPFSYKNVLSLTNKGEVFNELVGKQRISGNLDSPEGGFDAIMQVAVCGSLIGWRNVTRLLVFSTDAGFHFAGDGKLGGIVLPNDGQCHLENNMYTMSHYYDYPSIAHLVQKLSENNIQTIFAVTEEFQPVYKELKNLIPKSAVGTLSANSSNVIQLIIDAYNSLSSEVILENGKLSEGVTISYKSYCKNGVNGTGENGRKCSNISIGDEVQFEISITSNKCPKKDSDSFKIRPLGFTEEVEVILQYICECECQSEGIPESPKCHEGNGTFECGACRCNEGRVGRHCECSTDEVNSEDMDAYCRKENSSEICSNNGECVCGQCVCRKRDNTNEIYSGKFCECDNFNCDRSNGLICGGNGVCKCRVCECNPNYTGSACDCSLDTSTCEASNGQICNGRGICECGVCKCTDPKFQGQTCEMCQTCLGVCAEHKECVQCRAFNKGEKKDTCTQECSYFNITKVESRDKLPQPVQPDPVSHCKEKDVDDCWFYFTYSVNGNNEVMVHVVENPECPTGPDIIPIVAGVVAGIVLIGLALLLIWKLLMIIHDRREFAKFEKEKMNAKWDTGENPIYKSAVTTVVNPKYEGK

The term IC50 denotes the concentration that gives 50% inhibition. `CN(C(=O)C1(C(=O)N[C@@H](Cc2ccc(OCc3c(Cl)cccc3Cl)cc2)C(=O)O)CC1)c1ccccc1` [Example 23]: the IC50 in test [1] fell in the range of 2000 to 10000 nM; in test [2], 100 to 2000 nM.

On to `CN(C)C(=O)C1(C(=O)N[C@@H](Cc2ccc(OCc3c(Cl)cccc3Cl)cc2)C(=O)O)CCC1` [Example 29], for which the IC50 in test [1] and in test [2] was 100 to 2000 nM each time.

Turning to `CCC(CC)(C(=O)N[C@@H](Cc1ccc(OCc2c(Cl)cccc2Cl)cc1)C(=O)O)C(=O)N1CCCC1` [Example 32], the figures for the IC50 in test [1] and in test [2] were 100 to 2000 nM and 20 to 100 nM, respectively.

Regarding `CC(C)(C(=O)N[C@@H](Cc1ccc(OCc2c(Cl)cccc2Cl)cc1)C(=O)O)C(=O)N1CCCC1` [Example 33], the concentration for half-maximal inhibition (IC50) in test [1] lay within 100 to 2000 nM; in test [2] it was 20 to 100 nM.

For the compound `CCC(CC)(C(=O)N[C@@H](Cc1ccc(OCc2c(Cl)cccc2Cl)cc1)C(=O)O)C(=O)N1CCOCC1` [Example 34], the IC50 is 100 to 2000 nM in test [1] and 20 to 100 nM in test [2].

As for `CCC(CC)(C(=O)N[C@@H](Cc1ccc(OCc2c(Cl)cccc2Cl)cc1)C(=O)O)C(=O)N1CC[C@@H](O)C1` [Example 35], the IC50 in test [1] is 20 to 100 nM; in test [2] it was below 20 nM.

Take `CCC(CC)(C(=O)N[C@@H](Cc1ccc(OCc2c(Cl)cccc2Cl)cc1)C(=O)O)C(=O)N1CCSCC1` [Example 36]: the IC50 in test [1] is 100 to 2000 nM; in test [2] it was 20 to 100 nM.

Take `CCC(CC)(C(=O)N[C@@H](Cc1ccc(OCc2c(Cl)cccc2Cl)cc1)C(=O)O)C(=O)N1CCC(C(N)=O)CC1` [Example 39]: the IC50 in test [1] was in the range of 100 to 2000 nM; in test [2] it was 20 to 100 nM.

On to `CCC(CC)(C(=O)N[C@@H](Cc1ccc(OCc2c(Cl)cccc2Cl)cc1)C(=O)O)C(=O)N(C)CCN(C)C` [Example 40], for which the results for the IC50 in test [1] and in test [2] were 100 to 2000 nM and 20 to 100 nM, respectively.

Consider `CCN(C)C(=O)C(CC)(CC)C(=O)N[C@@H](Cc1ccc(OCc2c(Cl)cccc2Cl)cc1)C(=O)O` [Example 41], for which the IC50 in test [1] is 100 to 2000 nM; in test [2] it was 20 to 100 nM.

For `CCC(CC)(C(=O)N[C@@H](Cc1ccc(OCc2c(Cl)cccc2Cl)cc1)C(=O)O)C(=O)N1CCCNCC1` [Example 42], the values for the IC50 in test [1] and in test [2] were 100 to 2000 nM and 20 to 100 nM, respectively.

Turning to `CCC(CC)(C(=O)N[C@@H](Cc1ccc(OCc2c(Cl)cccc2Cl)cc1)C(=O)O)C(=O)N1CC[C@@H](N(C)C)C1` [Example 44], the values for the IC50 in test [1] and in test [2] were 100 to 2000 nM and below 20 nM, respectively.

Regarding `CCC(CC)(C(=O)N[C@@H](Cc1ccc(OCc2c(Cl)cccc2Cl)cc1)C(=O)O)C(=O)N1CCN(C=O)CC1` [Example 45], the IC50 lay in the range of 100 to 2000 nM in test [1] and 20 to 100 nM in test [2].

As to `CCC(CC)(C(=O)N[C@@H](Cc1ccc(OCc2c(Cl)cccc2Cl)cc1)C(=O)O)C(=O)N1C[C@H](O)C[C@H]1C(=O)OC` [Example 46], the values for the IC50 in test [1] and in test [2] were 100 to 2000 nM and below 20 nM, respectively.

With `CCC(CC)(C(=O)N[C@@H](Cc1ccc(OCc2c(Cl)cccc2Cl)cc1)C(=O)O)C(=O)N1CCC(O)CC1` [Example 49], the values for the IC50 in test [1] and in test [2] were 100 to 2000 nM and 20 to 100 nM, respectively.

As for `CCC(CC)(C(=O)N[C@@H](Cc1ccc(OCc2c(Cl)cccc2Cl)cc1)C(=O)O)C(=O)N1CCC[C@H]1COC` [Example 50], the IC50 in test [1] lay in the range of 100 to 2000 nM; in test [2], 20 to 100 nM.

For the compound `CCC(CC)(C(=O)N[C@@H](Cc1ccc(OCc2c(Cl)cccc2Cl)cc1)C(=O)O)C(=O)N1CCC[C@H]1CN1CCCC1` [Example 53], the figures for the IC50 in test [1] and in test [2] were 100 to 2000 nM and below 20 nM, respectively.

On to `CCC(CC)(C(=O)N[C@@H](Cc1ccc(OCc2c(Cl)cccc2Cl)cc1)C(=O)O)C(=O)N1CC[C@@H](NC(C)=O)C1` [Example 54], for which the figures for the IC50 in test [1] and in test [2] were 20 to 100 nM and below 20 nM, respectively.

In the case of `CCC(CC)(C(=O)N[C@@H](Cc1ccc(OCc2c(Cl)cccc2Cl)cc1)C(=O)O)C(=O)N1CC[C@H](NC(C)=O)C1` [Example 55], the IC50 in test [1] was 20 to 100 nM; in test [2], below 20 nM.

In the case of `CCC(CC)(C(=O)NC(Cc1ccc(OCc2c(Cl)cccc2Cl)cc1)C(=O)O)C(=O)N1CCCC1C(=O)OC` (stereo not drawn) [Example 56], the IC50 was 100 to 2000 nM in test [1] and below 20 nM in test [2].

With `O=C(O)[C@H](Cc1ccc(OCc2c(Cl)cccc2Cl)cc1)NC(=O)C1(C(=O)N2CCCC2)CCOCC1` [Example 58], the IC50 in test [1] and in test [2] was 100 to 2000 nM in each case.
